Test results: PMC12916490 (Molecular Psychiatry, 2025)
Like-named read-outs stand apart in the source and are kept apart here.

How the values were obtained:
h5-HT2C [1] = target: T1, h5-HT2C (Homo sapiens, UniProt P28335); assay: biochemical; type: binding
T1 sequence (P28335 33-458): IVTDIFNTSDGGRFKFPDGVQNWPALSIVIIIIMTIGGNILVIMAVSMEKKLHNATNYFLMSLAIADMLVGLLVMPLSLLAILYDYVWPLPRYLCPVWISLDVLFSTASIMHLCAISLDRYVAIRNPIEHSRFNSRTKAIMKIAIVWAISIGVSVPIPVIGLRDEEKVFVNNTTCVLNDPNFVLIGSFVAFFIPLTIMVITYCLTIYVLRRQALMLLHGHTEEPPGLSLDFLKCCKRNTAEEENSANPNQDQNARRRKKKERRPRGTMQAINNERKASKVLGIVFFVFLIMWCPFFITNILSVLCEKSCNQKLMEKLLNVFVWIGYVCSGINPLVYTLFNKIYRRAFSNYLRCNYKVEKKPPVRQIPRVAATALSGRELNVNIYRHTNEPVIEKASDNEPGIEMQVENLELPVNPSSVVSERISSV

hD2 = target: T2, hD2 (Homo sapiens, UniProt P14416); assay: Radioligand binding, hD2 receptor ([3H]spiperone)
T2 construct: expressed in transfected cells; host or cells: HEK 293 cells (membrane preparation)
T2 sequence (P14416 whole entry): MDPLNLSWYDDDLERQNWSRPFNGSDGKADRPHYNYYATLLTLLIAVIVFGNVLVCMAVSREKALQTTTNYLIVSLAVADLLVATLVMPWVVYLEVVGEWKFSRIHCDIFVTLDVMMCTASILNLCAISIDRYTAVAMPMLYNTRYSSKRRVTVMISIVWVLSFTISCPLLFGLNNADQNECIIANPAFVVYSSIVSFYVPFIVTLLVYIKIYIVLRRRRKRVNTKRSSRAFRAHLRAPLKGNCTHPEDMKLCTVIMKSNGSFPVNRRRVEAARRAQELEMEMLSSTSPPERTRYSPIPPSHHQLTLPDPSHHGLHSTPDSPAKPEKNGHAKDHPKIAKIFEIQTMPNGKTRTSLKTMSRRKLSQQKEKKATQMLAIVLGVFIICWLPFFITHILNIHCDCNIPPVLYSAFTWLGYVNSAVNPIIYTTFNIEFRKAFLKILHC
Protocol: Binding affinities at human monoamine receptors and transporters were assessed as previously reported. A detailed description of the methodology is provided in the Supplementary information.
(§1) Data analysis was performed with Prism software (version 10.1.2, GraphPad Software, Boston, MA, USA). The IC50 values from the radioligand binding assays were determined by nonlinear regression, using three independent concentration-response curves fitted to a one-site model. The Cheng-Prusoff equation was used to calculate Kᵢ values for the competing ligands. EC50 values were determined by applying nonlinear regression to concentration-response curves. Bias factors (β) were calculated based on the relative intrinsic activity approach. More detailed information can be found in the Supplementary information. Mean values for total number of HTR, change in body temperature from pre to post session (Δ°C), and total distance traveled (cm) for each drug dose were compared (p < 0.05) via Welch’s ANOVA with Dunnett’s T3 post test, comparing all doses to respective vehicle controls (0 mg/kg). Welch’s ANOVA with Dunnett’s T3 post test was also used to compare drug concentrations, but the data were compared to DOM in this case. Dose–response relationships for HTR and locomotor activities were plotted using bell-shaped curve fits, while temperature change data were plotted using four-parameter non-linear regression curve fits. The ascending phase of the HTR curve for each drug was used to determine ED50 potency values from four parameter non-linear regression fits. For combined DOM and DOAM administration, the plasma, brain tissue, and brain dialysate drug concentrations were compared using paired t-tests (p < 0.05). Ratios were compared using Holm-Sidak’s post hoc test following a repeated-measures one-way ANOVA (F (1.709, 6.835) = 70.80; p < 0.0001).
3.1 Assessment of receptor and transporter binding affinities
Membrane preparations were prepared from cells transfected with the respective target. The membrane preparations were then incubated with selective radioligands at concentrations equal to the corresponding Kd and displacement of the ligand by the drugs was measured. The difference between total binding and nonspecific binding (determined in the presence of selective competitors) was defined as specific binding of the radioligand to the target receptor. The following transfected cell lines were used for the binding assays: HEK 293 cells (h5-HT1A, h5-HT2A, h5-HT2B, h5-HT2C, and hD2 receptors, hDAT, hNET, and hSERT), Chinese hamster ovary cells (hα 1A receptor), and Chinese hamster lung cells (hα 2A receptor).
3.1.1 Membrane preparations for receptor and transporter binding
For producing membrane preparations, transfected cells were harvested with trypsin/EDTA, washed with ice-cold phosphate buffered saline, and then pelleted by centrifugation (210 × g for 5 min at 4 °C). The pellets were frozen and stored at -80 °C until use. Frozen pellets were resuspended in 20 m L (receptor binding) or 400 m L (transporter binding) buffer (20 mM HEPES -NaOH, 10 mM EDTA, pH 7.4), and homogenized at 1,100 × g for 20 s (receptor binding) or 560 × g for 15 s (transporter binding); the homogenates were then centrifuged at 48,000 × g for 30 min at 4 °C. […]
Competitive binding at the h5-HT1A and h5-HT2A receptor was determined using 0.90 nM [ 3H]8-hydroxy-2-(di-n-propylamine)tetralin ([ 3H]8-OH-DPAT; h5-HT1A receptor agonist) and 0.40 nM [3H]ketanserin (h5-HT2 receptor antagonist) as radioligands. […]

h5-HT2C [2] = target: T1, h5-HT2C; assay: cell-based; conditions: for Emax: read-out: IP1 formation Emax h5-HT2C (95% CI)
C57BL/6 J mice = assay: HTR after single fixed doses prior to brain and blood collection (20 min); type: in vivo, mouse; conditions: single s.c. dose: DOM 3, DOPR 1, DOBU 3, DOAM 10, 2,5-DMA 10 mg/kg
Protocol: In these experiments, HTR activity was monitored for 20 min, followed by cardiac puncture and decapitation. Whole blood (~ 300–500 µL per sample) was collected via cardiac puncture, placed in tubes containing 10 µL of heparin (1000 IU/mL), and immediately stored on ice until centrifugation. Blood samples were spun at 3300 rpm at 4 °C and plasma was decanted into vials on dry ice until storage at -80 °C. Whole brains were collected immediately after cardiac puncture. Brains were frozen on dry ice, weighed, then placed into 7-mL homogenizing tubes with ceramic beads, and stored at -80 °C.
as §1, with “For combined DOM and DOAM administration, the plasma, brain tissue, and brain dialysate drug concentrations were compared using paired t-tests (p < 0.05). Ratios were compared using Holm-Sidak’s post hoc test following a repeated-measures one-way ANOVA (F (1.709, 6.835) = 70.80; p < 0.0001).” left out

| Compound | Ki (h5-HT2C [1]) [µM] | Ki (hD2) [µM] | EC50 (h5-HT2C [2]) [µM] | Emax (h5-HT2C [2]) [%] | HTR (C57BL/6 J mice) [count/20 min] | Emax (h5-HT2C [2]; normalized to maximal effect of 5-HT) [%] |
| --- | --- | --- | --- | --- | --- | --- |
| COc1ccc(OC)c(CC(C)N)c1.Cl (centres unmarked) [2,5-DMA, 2,5-Dimethoxyamphetamine hydrochloride] | > 5 | > 13 | 0.124 | 103 | 19 | – |
| CCCCCc1cc(OC)c(CC(C)N)cc1OC (centres unmarked) [DOAM, 4-amyl-2,5-dimethoxyamphetamine] | 0.075 | > 13 | 0.0009 | 94 | 30 | – |
| CCCCc1cc(OC)c(CC(C)N)cc1OC (centres unmarked) [DOBU, 4-butyl-2,5-dimethoxyamphetamine] | 0.06 | > 13 | 0.00013 | – | 37 | 95 |
| CCc1cc(OC)c(CC(C)N)cc1OC (centres unmarked) [DOET, 4-ethyl-2,5-dimethoxyamphetamine] | – | > 13 | – | – | – | – |
| COc1cc(CC(C)N)c(OC)cc1C (centres unmarked) [DOM, 4-methyl-2,5-dimethoxyamphetamine] | – | > 7.5 | – | – | – | – |
| CCCc1cc(OC)c(CC(C)N)cc1OC.Cl (centres unmarked) [DOPR, 4-propyl-2,5-dimethoxyamphetamine hydrochloride] | 0.047 | – | 0.00093 | 99 | – | – |
